Patent US20230158016A1, “DELTA OPIOID RECEPTOR ANTAGONISTS REPROGRAM IMMUNOSUPPRESSIVE MICROENVIRONMENT TO BOOST IMMUNOTHERAPY” (H LEE MOFFITT CANCER CENTER AND RESEARCH INSTITUTE, INC., priority 2020, published 2023)
Where a name gives a salt, the structure may show the parent alone.

System: Bone marrow precursors
Test: Development of MDSC from bone marrow precursors cultured in GM-CSF and G-CSF with DOR antagonists
Type: cell-based, mice
Settings: bone marrow precursors cultured 96 hours in GM-CSF and G-CSF (20 ng/ml each), increasing concentrations of antagonist
Experimental: Next the effect of DOR antagonist on M-MDSC was investigated. Bone marrow precursors were isolated and cultured for 96 hours in GM-CSF and G-CSF (20 ng/ml each) in the presence of increasing concentrations of the DOR antagonists Naltriben mesylate (NTB) or Naltrindole hydrochloride (NTD). Then, we evaluated cell viability by flow cytometry (using DAPI). […] Additionally, the number of M-MDSC (CD11b^+Ly6G^negLy6C^high) and PMN-MDSC (CD11b^+Ly6G^+Ly6C^low) was calculated.
The conjugated antibodies and probes used for flow cytometry are listed in the Key Resources Table. For surface staining, cells were labelled with the appropriate antibodies in the presence of Fc blocker. For intracellular staining, surface-labeled cells were fixed with Cytofix/Cytoperm™ Solution (BD Biosciences), washed in Perm/Wash™ 1×solution, and labelled with intracellular antibodies. Cells were then washed in Perm/Wash™ 1×and PBS. Live vs. dead cell discrimination was performed prior to antibody labeling by Zombie Fixable Viability dye (Biolegend). Ex vivo intracellular staining for IL-12 and TNFα was performed on isolated cells after stimulation for 6 hours with LPS (1 μg/ml, Sigma Aldrich) in the presence of Golgi stop (0.8 μl/ml, BD Biosciences). For IFNγ staining, cells were incubated for 5 hours with phorbol myristate acetate (PMA, 750 ng/mL, Sigma Aldrich) and ionomycin (50 μg/mL, Sigma-Aldrich) in the presence and Golgi stop (0.8 μl/ml). For ER-tracker and Mitotracker staining, cells were probed with 100 nM of ER tracker green or 200 nM of Mitotracker green (Invitrogen) and then stained for surface markers. For Mitochondrial membrane potential, cells were stained with JC-1 flow cytometry assay kit (Cayman chemicals) followed by surface markers staining. ROS were detected by DCFDA (10 μM) or Dihydroethidium (DHE, 10 μM). Data acquisition was performed in a CytoFLEX II (Beckman Coulter) or LSRII (BD Biosciences). All analysis was performed using FlowJo version 11 software.

Row | Compound | absolute number of generated MDSC (CD11b+Gr1+) | cell viability by flow cytometry (using DAPI) | number of M-MDSC (CD11b+Ly6GnegLy6Chigh) | number of PMN-MDSC (CD11b+Ly6G+Ly6Clow)
1 | Oc1ccc2c3c1O[C@H]1c4[nH]c5ccccc5c4C[C@@]4(O)[C@@H](C2)N(CC2CC2)CC[C@]314 [NTD, Naltrindole hydrochloride] | steady decline of MDSC as concentrations increased | strong correlation increasing concentration of either NTD or NTB and cell death | the more significant losses were observed in the M-MDSC subset | declined in number as the concentration of NTD or NTB increased
2 | Naltriben mesylate [NTB] | steady decline of MDSC as concentrations increased | strong correlation increasing concentration of either NTD or NTB and cell death | the more significant losses were observed in the M-MDSC subset | declined in number as the concentration of NTD or NTB increased
